We go through 12 compounds from article PMC10669182, “Pyrazolo-triazolo-pyrimidine Scaffold as a Molecular Passepartout for the Pan-Recognition of Human Adenosine Receptors” (Biomolecules, 2023).

Read-outs that look alike come from different tables or passages of the source.

Assay [1] has as its target human A1 adenosine receptor. Particulars: [3H]CCPA, geometric mean with 95% confidence limits, read-out: hA1 (Ki nM), cited from earlier work.
Assay [2] deals with human A2A adenosine receptor. The following applies: [3H]NECA, geometric mean with 95% confidence limits, read-out: hA2A (Ki nM), cited from earlier work.
In assay [3] the target is T1, human A2B adenosine receptor (Homo sapiens, UniProt P29275).
T1 construct: expressed in transfected cells; host or cells: CHO cells, stably transfected; membrane preparation
T1 sequence (P29275 1-332): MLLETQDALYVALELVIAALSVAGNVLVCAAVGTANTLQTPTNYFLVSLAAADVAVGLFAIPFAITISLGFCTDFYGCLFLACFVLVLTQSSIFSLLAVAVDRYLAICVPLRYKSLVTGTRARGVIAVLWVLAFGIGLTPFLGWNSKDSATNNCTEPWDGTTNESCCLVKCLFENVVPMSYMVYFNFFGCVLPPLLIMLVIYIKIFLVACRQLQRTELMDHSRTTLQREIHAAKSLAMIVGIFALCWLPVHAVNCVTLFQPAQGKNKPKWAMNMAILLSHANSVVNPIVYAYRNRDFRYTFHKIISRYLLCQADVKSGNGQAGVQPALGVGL
The experiment in a line: Radioligand binding, displacement of [3H]ZM241385 at human A2B receptors expressed in CHO cells. The following applies: 10 nM [3H]ZM241385, CHO cell membranes, 3 h room temperature; geometric mean with 95% confidence limits; reported for the first time; read-out: hA2B (Ki nM). The method, then:
All pharmacological methods followed the procedures described earlier. In brief, membranes for radioligand binding were prepared from CHO cells stably transfected with human adenosine receptor subtype (obtained as reported in reference) in a two-step procedure. In a first low-speed step (1000× g), cell fragments and nuclei were removed. The crude membrane fraction was sedimented from the supernatant at 100,000× g. The membrane pellet was resuspended in the buffer used for the respective binding experiments, frozen in liquid nitrogen, and stored at −80 °C.
Compounds were dissolved in DMSO and then diluted to the desired concentration in buffer, and at least 6 different concentrations were tested. DMSO in the final solution never exceeded 2%. For radioligand binding at A1 adenosine receptors, 1 nM [^3H]CCPA was used, whereas 30 and 10 nM [^3H]NECA were used for A2A and A3 receptors, respectively. Non-specific binding of [^3H]CCPA was determined in the presence of 1 mM theophylline; in the case of [^3H]NECA, 100 µM R-PIA was used. For radioligand binding assay of compounds 1–4 at A2B receptors, membranes (20 µg membrane protein) were incubated in a total volume of 200 µL (assay buffer: Tris/HCl pH 7.4, 10 mM MgCl2, 0.1% bovine serum albumin) with 10 nM [^3H]ZM241385. Non-specific binding of [^3H]ZM241385 was determined in the presence of 0.3 mM NECA. After 3 h at room temperature, samples were filtered and washed as described. Ki values from competition experiments were calculated with the program SCTFIT [32] and represented the mean of 3–6 replicates with 95% confidence limits.
(In general: In a radioligand displacement assay an active substance lowers the binding of a labelled ligand.)

Assay [4] concerns the target hA2B adenosine receptor. Set-up: method as in PMID 19501513, PMID 19908874. The following applies: NECA (5 μM)-stimulated adenylyl cyclase, hA2B-CHO membranes; geometric mean with 95% confidence limits; cited from earlier work.
Assay [5] has as its target human A3 adenosine receptor. The following applies: [3H]NECA, geometric mean with 95% confidence limits, read-out: hA3 (Ki nM), cited from earlier work.
The mark [6] stands for this setting: CHO cell membranes, compounds 1-7.

One may read the Ki as the dissociation constant of the complex between target and ligand, obtained from inhibition or displacement. The term IC50 denotes the point on the concentration scale where inhibition reaches its midpoint. On to `Cn1cc2c(nc(NC(=O)C(c3ccccc3)c3ccccc3)n3nc(-c4ccco4)nc23)n1` [Compound 1], for which the Ki in assay [1] (setting [6]) was 139 nM; in assay [2] (setting [6]) it was 216 nM; in assay [3] it was 29.1 nM; in assay [5] (setting [6]), 0.25 nM. In addition, in assay [4], the IC50 is 363 nM.
As to `CCn1cc2c(nc(NC(=O)C(c3ccccc3)c3ccccc3)n3nc(-c4ccco4)nc23)n1` [Compound 2], the inhibition constant Ki in assay [1] (setting [6]) is 156 nM; in assay [2] (setting [6]), 131 nM; in assay [3], 18.3 nM; in assay [5] (setting [6]) it was 0.98 nM. Also, in assay [4], the concentration for half-maximal inhibition (IC50) is 745 nM.
As to `CCCn1cc2c(nc(NC(=O)C(c3ccccc3)c3ccccc3)n3nc(-c4ccco4)nc23)n1` [Compound 3], the Ki was 80.2 nM in assay [1] (setting [6]), 46.5 nM in assay [2] (setting [6]), 13.3 nM in assay [3] and 0.93 nM in assay [5] (setting [6]). Moreover, the IC50 in assay [4] was 491 nM.
As for `CCCCn1cc2c(nc(NC(=O)C(c3ccccc3)c3ccccc3)n3nc(-c4ccco4)nc23)n1` [Compound 4], the inhibition constant Ki in assay [1] (setting [6]) is 129 nM; in assay [2] (setting [6]), 114 nM; in assay [5] (setting [6]), 1.2 nM. Besides, the 50% inhibitory concentration (IC50) in assay [4] was 780 nM.
`CC(C)CCn1cc2c(nc(NC(=O)C(c3ccccc3)c3ccccc3)n3nc(-c4ccco4)nc23)n1` [Compound 5]: the results for the Ki in assay [1] (setting [6]), in assay [2] (setting [6]) and in assay [5] (setting [6]) were 441 nM, 159 nM and 5.86 nM, respectively. Moreover, the half-inhibitory concentration (IC50) in assay [4] was above 10000 nM.
With `CCn1cc2c(nc(NC(=O)Cc3cccs3)n3nc(-c4ccco4)nc23)n1` [Compound 6], the inhibition constant (Ki) is 148 nM in assay [1] (setting [6]), 15.9 nM in assay [2] (setting [6]) and 196 nM in assay [5] (setting [6]). Besides, the IC50 in assay [4] was above 10000 nM.
In the case of `Cn1cc2c(nc(NC(=O)Cc3cccs3)n3nc(-c4ccco4)nc23)n1` [Compound 7], the Ki in assay [1] (setting [6]) was 444 nM; in assay [2] (setting [6]), 56 nM; in assay [5] (setting [6]) it was 5.26 nM. In assay [4], the IC50 was above 10000 nM.
Consider `Cn1cc2c(nc(N)n3nc(-c4ccco4)nc23)n1` [Compound 8], for which the inhibitory constant (Ki) in assay [1] (CHO cells, compounds 8-12) is 101 nM; in assay [2] (CHO cells, compounds 8-12), 2.8 nM; in assay [5] (CHO cells, compounds 8-12) it was 300 nM.
For the compound `CCn1cc2c(nc(N)n3nc(-c4ccco4)nc23)n1` [Compound 9], the Ki is 5 nM in assay [1] (CHO cells, compounds 8-12); 1.95 nM in assay [2] (CHO cells, compounds 8-12); 331 nM in assay [5] (CHO cells, compounds 8-12).
As to `CCCn1cc2c(nc(N)n3nc(-c4ccco4)nc23)n1` [Compound 10], the inhibitory constant (Ki) in assay [1] (CHO cells, compounds 8-12) is 10 nM; in assay [2] (CHO cells, compounds 8-12), 2.51 nM; in assay [5] (CHO cells, compounds 8-12) it was 408 nM.
In the case of `CCCCn1cc2c(nc(N)n3nc(-c4ccco4)nc23)n1` [Compound 11], the Ki in assay [1] (CHO cells, compounds 8-12) was 14 nM; in assay [2] (CHO cells, compounds 8-12) it was 1.6 nM; in assay [5] (CHO cells, compounds 8-12) it was 600 nM.
`CC(C)CCn1cc2c(nc(N)n3nc(-c4ccco4)nc23)n1` [Compound 12]: the inhibition constant (Ki) in assay [1] (CHO cells, compounds 8-12) is 2 nM; in assay [5] (CHO cells, compounds 8-12), 700 nM.
